According to patent US6410735B1, “1-(4-arylpiperazin-1-y1)-ω-[N-(α,ω-dicarboximido)]-alkanes useful as uro-selective α1-adrenoceptor blockers” (Ranbaxy Laboratories Limited, priority 1997, dated 2002):

Columns and labels:
[1] = target: T1, α1A-adrenoceptor (prostate) (Rattus norvegicus, UniProt P43140); test: In vitro functional assay, phenylephrine-induced contraction of isolated prostate; format: cell-based; settings: rat prostate, phenylephrine; read-out: In Vitro Functional Assay (pKB) α1A (converted)
T1 construct: Aorta, prostate and spleen tissues were isolated from urethane anaesthetized (1.5 gm/kg) male wistar rats; from tissue; host or cells: isolated prostate of male Wistar rats
T1 sequence (P43140 1-466): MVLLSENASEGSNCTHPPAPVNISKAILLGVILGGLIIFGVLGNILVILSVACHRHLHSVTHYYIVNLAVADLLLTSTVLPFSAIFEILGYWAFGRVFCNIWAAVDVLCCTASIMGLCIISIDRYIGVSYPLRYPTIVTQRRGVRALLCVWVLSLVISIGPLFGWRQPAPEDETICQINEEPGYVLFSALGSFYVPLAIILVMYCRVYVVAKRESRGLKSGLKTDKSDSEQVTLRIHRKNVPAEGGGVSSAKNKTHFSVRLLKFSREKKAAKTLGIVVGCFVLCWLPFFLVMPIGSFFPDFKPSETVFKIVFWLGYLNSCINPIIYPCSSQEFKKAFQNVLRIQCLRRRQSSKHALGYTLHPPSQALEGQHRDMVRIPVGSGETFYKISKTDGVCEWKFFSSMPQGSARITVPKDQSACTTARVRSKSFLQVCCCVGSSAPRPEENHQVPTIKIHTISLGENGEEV
Text: (§1) In order to study selectivity of action of the present compounds towards different α-adrenoceptor subtypes, the ability of these compounds to antagonize α1-adrenoceptor agonist induced contractile response of aorta (α1D), prostate (α1A) and spleen (α1B) was studied. Aorta, prostate and spleen tissues were isolated from urethane anaesthetized (1.5 gm/kg) male wistar rats. Isolated tissues were mounted in organ bath containing Krebs Henseleit buffer of the following composition (mM): NaCl 118; KCl 4.7; CaCl2 2.5; MgSO4·H2O 1.2; NaHCO3 25; KH2PO4 1.2; glucose 11.5. Buffer was maintained at 37° C. and aerated with a mixture of 95% O2 and 5% CO2. A resting tension of 2 g (aorta) or 1 g (spleen and prostate) was applied to tissues. Contractile response was monitored using a force displacement transducer and recorded on chart recorders. Tissues were allowed to equilibrate for 2 hours. At the end of equilibration period, concentration response curves to norepinephrine (aorta) and phenylephrine (spleen and prostate) were obtained in the absence and presence of the tested compound (at concentrations of 0.1, 1 and 10 μM). Antagonist affinity was calculated and expressed as PKB values in Table 1.

α1D-adrenoceptor (aorta) = target: T2, α1D-adrenoceptor (aorta) (Rattus norvegicus, UniProt P23944); test: In vitro functional assay, norepinephrine-induced contraction of isolated aorta; format: cell-based; settings: rat aorta, norepinephrine; read-out: In Vitro Functional Assay (pKB) α1D (converted)
T2 construct: Aorta, prostate and spleen tissues were isolated from urethane anaesthetized (1.5 gm/kg) male wistar rats; from tissue; host or cells: isolated aorta of male Wistar rats
T2 sequence (P23944 1-561): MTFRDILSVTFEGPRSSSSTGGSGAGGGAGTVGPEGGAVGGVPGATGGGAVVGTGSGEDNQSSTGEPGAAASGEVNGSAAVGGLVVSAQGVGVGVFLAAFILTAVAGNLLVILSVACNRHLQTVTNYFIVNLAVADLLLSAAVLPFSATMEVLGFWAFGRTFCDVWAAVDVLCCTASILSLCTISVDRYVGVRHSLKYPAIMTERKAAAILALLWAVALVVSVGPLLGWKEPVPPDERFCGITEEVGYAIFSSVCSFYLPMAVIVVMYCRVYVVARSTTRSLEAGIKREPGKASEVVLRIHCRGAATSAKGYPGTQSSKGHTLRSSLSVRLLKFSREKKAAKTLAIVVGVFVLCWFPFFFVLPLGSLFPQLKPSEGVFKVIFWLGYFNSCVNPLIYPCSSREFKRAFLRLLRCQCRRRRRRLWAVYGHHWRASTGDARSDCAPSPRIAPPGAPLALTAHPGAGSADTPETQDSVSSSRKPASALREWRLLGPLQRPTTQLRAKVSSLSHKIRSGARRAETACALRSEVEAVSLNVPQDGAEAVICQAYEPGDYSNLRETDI
Text: as §1

[2] = test system: anaesthetized dogs (intraurethral pressure); test: In vivo selectivity study, phenylephrine response on intraurethral (prostatic) pressure in anaesthetized dogs; set-up: species or system dog; settings: Canis lupus familiaris, iv 0.01-0.3 mg/kg, against phenylephrine, read-out: pseudo pKB Intraurethral Pressure (converted)
Description: Male mongrel dogs (12-20 Kg) were anaesthetized with pentobarbitone sodium (35 mg/kg, iv). Trachea was intubated for artificial respiration. Femoral artery and femoral vein were cannulated for recording blood pressure and for administration of drug solutions, respectively. Blood pressure was recorded on a polygraph through a pressure transducer. A paramedian incision was made lateral to the penis and the bladder was exposed. Urine was drained through a cannula put directly into the bladder and it was guided into the urethra gently and was placed at the prostatic urethra. Balloon was inflated with 2 cc air and its placement was confirmed by digital pressure. Intraurethral pressure was recorded on the polygraph through a pressure transducer. Graded dose response relationship of phenylephrine (1-16 μg/kg, iv) was obtained on prostatic pressure and blood pressure, prior to administration of the compounds of the present invention. Compounds 2, 9, and 13 (at dosages of 0.01, 0.03, 0.1, and 0.3 mg/kg) were administered intravenously 10 min before obtaining phenylephrine dose response curves. Results were analyzed and pseudo PKB values were calculated as described in Kenny et al (1996).

ETA = target: T3, ETA (Rattus norvegicus, UniProt P26684); test: Receptor selectivity, rat aorta; format: cell-based; settings: read-out: pKB ETA (converted)
T3 construct: from tissue; host or cells: rat aorta
T3 sequence (P26684 21-426): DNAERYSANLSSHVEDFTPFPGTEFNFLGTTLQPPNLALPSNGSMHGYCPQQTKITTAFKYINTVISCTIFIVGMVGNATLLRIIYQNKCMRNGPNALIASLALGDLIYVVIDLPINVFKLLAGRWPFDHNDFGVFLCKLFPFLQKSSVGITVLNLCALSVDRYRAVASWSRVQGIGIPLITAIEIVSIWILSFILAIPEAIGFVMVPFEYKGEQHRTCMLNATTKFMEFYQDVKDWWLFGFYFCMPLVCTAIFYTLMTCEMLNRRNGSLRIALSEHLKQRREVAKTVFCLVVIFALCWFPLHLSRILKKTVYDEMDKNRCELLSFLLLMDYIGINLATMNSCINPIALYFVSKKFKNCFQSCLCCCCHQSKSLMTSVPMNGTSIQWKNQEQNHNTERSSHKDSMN
Description: Selectivity of action of the present compounds was tested against a range of different receptors, e.g., β1- and α2-adrenergic, muscarinic cholinergic, serotoninergic (5-HT2A), histaminergic (H1), angiotensin II, endothelin (ETA and B,), as well as calcium and potassium channels. Rat aorta was used to study the effect of the compounds on 5-HT2A, ETA, calcium and potassium channels. Angiotensin II receptor antagonistic activity was studied in rabbit aorta. Muscarinic cholinergic receptor and ETB receptor antagonistic activity was studied in rat trachea, while guinea pig trachea was used to study H1 receptor antagonistic activity. Electrically stimulated rat vas deferens was used to investigate the effect of α2-adrenoceptors, while β1-adrenoceptor antagonistic activity was studied using electrically stimulated rat ventricular strips. Results of this selectivity study is shown in (Table 2).

COc1ccccc1N1CCN(CCCN2C(=O)CCC2=O)CC1 [Compound 2, 1-[4-(2-Methoxyphenyl)piperazin-1-yl]3-(2,5-dioxopyrrolidin-1-yl)propane]
Kb [1]: 2 nM
Kb (α1D-adrenoceptor (aorta)): 50.1 nM
Kb [2]: 25.1 nM

COc1ccccc1N1CCN(CCCCN2C(=O)CCC2=O)CC1 [Compound 9, 1-[4-(2-Methoxyphenyl)piperazin-1-yl]-4-(2,5-dioxopyrrolidin-1-yl)butane]
Kb [1]: 1 nM
Kb (α1D-adrenoceptor (aorta)): 5.01 nM
Kb (ETA): 50100 nM
Kb [2]: 12.6 nM

COc1ccccc1N1CCN(CCCN2C(=O)CCCC2=O)CC1 [Compound 13, 1-[4-(2-Methoxyphenyl)piperazin-1-yl]-3-(2,6-dioxopiperidin-1-yl)propane]
Kb [1]: 2.51 nM
Kb (α1D-adrenoceptor (aorta)): 12.6 nM
Kb (ETA): 50100 nM
Kb [2]: 7.94 nM
